In US20100159093A1, “METHOD OF TREATING FOODSTUFF” (priority 2008, published 2010):

Key:
haemolytic bacteria = experiment: Number of haemolytic bacteria in raw milk (blood culture dishes) under nitrogen gas; format: cell-based; conditions: 12.0° C., following four days of treatment
Source text: It is possible to measure the effectiveness of nitrogen gas for preventing growth of phospholipase for instance as a difference in the number of haemolytic microbes in the foodstuff or foodstuff material, which is an indication of the growth-preventing effect of the nitrogen gas, which effect is directed at the microbes, which produce phospholipase-transmitted virulence factors (see Example 6 below).
(§1) With the device shown in FIG. 1, the effect of nitrogen gas on the natural microflora in raw milk (volume approximately 125 ml) was examined by replacing the air (control) in an open vessel (volume approximately 250 ml) at a constant temperature, with a flow-through of 100% nitrogen gas (purity 99.999%, manufacturer AGA) at two different flow-through rates: N1=120 ml/min, N2=40 ml/min.
Two flow-through rates of the nitrogen gas were used in the study: (grey) 40 ml/min and (black) 120 ml/min.

[1] = test system: bacteria producing phospholipase; experiment: Number of phospholipase-producing bacteria (aerobic cultivation) in raw milk under nitrogen gas; format: cell-based
Method: as §1
(§2) The temperature of the raw milk in the sample bottles was adjusted by means of the thermostat (14) of the water bath to bring the temperature of the milk to 6.0° C., 7.0° C. or 12.0° C. The temperature variation in the vessel was less than ±0.1° C.
(§3) The effect of nitrogen gas on the growth of the microflora in a raw milk sample at 12.0° C. Two flow-through rates of the nitrogen gas were used in the study: (▴) 40 ml/min and ([…]) 120 ml/min. […] The following bacterial levels were determined in the samples:
FIGS. 7A-C show the effect, in three different samples of raw milk (samples A, B and C), of nitrogen gas at 6.0° C. on the number of the bacteria which produce phospholipase. Two flow-through rates of the nitrogen gas were used in the study: (▴) 40 ml/min, i.e. the N2 environment, and ([…]) 120 ml/min, i.e. the N1 environment.

[2] = test system: psychrotrophic bacteria in raw milk and lactic acid bacteria; conditions: 4° C., closed vessel, Murray et al.; cited from earlier work
[3] = test system: anaerobic spores, such as C. tyrobutyricum; experiment: Anaerobic spore count in raw milk under nitrogen gas; format: cell-based; conditions: 12.0° C., N1 environment (120 ml/min), Example 5, FIG. 5L
Method: as §1, §2, §3
FIG. 5A: Total bacteria count (p.m.y./ml) FIG. 5B: Total number of psychrotrophs (p.m.y./ml) FIG. 5C: Total number of proteolytic bacteria (p.m.y./ml) FIG. 5D: Total number of lipolytic bacteria (p.m.y./ml) FIG. 5E: Total number of bacteria producing phospholipase (p.m.y./ml). […]

[4] = test system: anaerobically cultivated phospholipase-producing bacteria; experiment: Number of anaerobically cultivated phospholipase-producing bacteria in raw milk under nitrogen gas; format: cell-based; conditions: 12.0° C., FIG. 5K
Method: With the device shown in FIG. 1, the effect of nitrogen gas on the natural microflora in raw milk (volume approximately 125 ml) was examined by replacing the air (control) in an open vessel (volume approximately 250 ml) at a constant temperature, with a flow-through of 100% nitrogen gas (purity 99.999%, manufacturer AGA) at two different flow-through rates: N1=120 ml/min, N2=40 ml/min. The temperature of the raw milk in the sample bottles was adjusted by means of the thermostat (14) of the water bath to bring the temperature of the milk to 6.0° C., 7.0° C. or 12.0° C. The temperature variation in the vessel was less than ±0.1° C. The effect of nitrogen gas on the growth of the microflora in a raw milk sample at 12.0° C. Two flow-through rates of the nitrogen gas were used in the study: (▴) 40 ml/min and ([…]) 120 ml/min. […] The following bacterial levels were determined in the samples: FIG. 5A: Total bacteria count (p.m.y./ml) FIG. 5B: Total number of psychrotrophs (p.m.y./ml) FIG. 5C: Total number of proteolytic bacteria (p.m.y./ml) FIG. 5D: Total number of lipolytic bacteria (p.m.y./ml) FIG. 5E: Total number of bacteria producing phospholipase (p.m.y./ml). […]

[5] = test system: psychrotrophic P. fluorescens strain; conditions: sterile milk, 4° C., Skura et al.; cited from earlier work

Structure (SMILES): N#N [nitrogen gas]
- haemolytic microbes in the raw milk (haemolytic bacteria; N1 environment (120 ml/min)): none
- haemolytic microbes, less than in the control environment (haemolytic bacteria; N2 environment (40 ml/min)): 2 log-units
- elimination of the bacteria which produce phospholipase ([1]; 6° C., N1 environment (120 ml/min), adequately long treatment period, three raw milk samples): possible to eliminate the bacteria which produce phospholipase
- time from beginning of nitrogen gas treatment to elimination of microbes which produce phospholipase ([1]; 12.0° C., N1 environment (120 ml/min), Example 4 sample): ≤ 96 h
- growth of the aerobic bacteria which secrete phospholipase ([1]; 12.0° C., N1 environment (120 ml/min), Examples 4 and 5, FIG. 5E): total prevention of growth
- growth of the number of the microbes which produce phospholipase ([1]; 12.0° C., N2 environment (40 ml/min), Example 4 sample): ceases in the N2 environment after 3 days
- growth of the aerobic bacteria which secrete phospholipase ([1]; 12.0° C., N2 environment (40 ml/min), after 2 days, FIG. 5E): total prevention of growth
- growth-preventing effect on phospholipase-positive bacteria ([1]; at 7° C.): impossible to detect this effect
- growth-preventing effect on phospholipase-positive bacteria ([1]; at 12° C.): the effect of the nitrogen gas was obvious
- growth of the psychrotrophic bacteria in raw milk and of the lactic acid bacteria [2]: only slightly slowed down the growth
- production of the proteolytic exoenzymes by the psychrotrophic bacteria [2]: effectively prevented the production
- formation (sporulation) of anaerobic spores [3]: does not increase the formation (sporulation)
- growth of the anaerobic bacteria which secrete phospholipase ([4]; N1 environment (120 ml/min)): total prevention of growth
- growth of the anaerobic bacteria which secrete phospholipase ([4]; N2 environment (40 ml/min)): total prevention of growth
- growth of P. fluorescens strain versus control culture in normal air [5]: grew slower
- proteolytic activity of the strain [5]: very low compared with that of the control culture
